Experimental data reported in the NIST ThermoML archive (doi:10.1016/j.jct.2016.06.016).

Experiment: xn = mol fraction of the nth substance listed
Details: 100 kPa, Liquid; for viscosity: Concentric cylinders viscometry; for mass density: Vibrating tube method

CCOC(=O)CCC(=O)OCC [diethyl butanedioate] + CCCCO
Details | mass density [kg/m3] | viscosity [mPa·s]
288.15 K, x1 = 0.1 | 851.32 | 2.665
288.15 K, x1 = 0.2001 | 884.48 | 2.382
288.15 K, x1 = 0.3 | 913.45 | 2.302
288.15 K, x1 = 0.3999 | 938.87 | 2.306
288.15 K, x1 = 0.5 | 961.37 | 2.342
288.15 K, x1 = 0.6001 | 981.44 | 2.405
288.15 K, x1 = 0.6998 | 999.46 | 2.515
288.15 K, x1 = 0.7999 | 1015.94 | 2.692
288.15 K, x1 = 0.8997 | 1031 | 2.934
288.15 K, x1 = 1 | 1044.83 | 3.195
293.15 K, x1 = 0.1 | 847.26 | 2.339
293.15 K, x1 = 0.2001 | 880.14 | 2.106
293.15 K, x1 = 0.3 | 908.86 | 2.041
293.15 K, x1 = 0.3999 | 934.12 | 2.045
293.15 K, x1 = 0.5 | 956.51 | 2.077
293.15 K, x1 = 0.6001 | 976.5 | 2.133
293.15 K, x1 = 0.6998 | 994.45 | 2.228
293.15 K, x1 = 0.7999 | 1010.87 | 2.38
293.15 K, x1 = 0.8997 | 1025.85 | 2.585
293.15 K, x1 = 1 | 1039.63 | 2.807
298.15 K, x1 = 0.1 | 843.14 | 2.072
298.15 K, x1 = 0.2001 | 875.78 | 1.877
298.15 K, x1 = 0.3 | 904.32 | 1.825
298.15 K, x1 = 0.3999 | 929.42 | 1.831
298.15 K, x1 = 0.5 | 951.69 | 1.861
298.15 K, x1 = 0.6001 | 971.57 | 1.914
298.15 K, x1 = 0.6998 | 989.44 | 2.003
298.15 K, x1 = 0.7999 | 1005.79 | 2.141
298.15 K, x1 = 0.8997 | 1020.71 | 2.318
298.15 K, x1 = 1 | 1034.44 | 2.491
303.15 K, x1 = 0.1 | 838.99 | 1.845
303.15 K, x1 = 0.2001 | 871.41 | 1.682
303.15 K, x1 = 0.3 | 899.78 | 1.64
303.15 K, x1 = 0.3999 | 924.74 | 1.649
303.15 K, x1 = 0.5 | 946.87 | 1.678
303.15 K, x1 = 0.6001 | 966.65 | 1.727
303.15 K, x1 = 0.6998 | 984.43 | 1.806
303.15 K, x1 = 0.7999 | 1000.71 | 1.925
303.15 K, x1 = 0.8997 | 1015.58 | 2.078
303.15 K, x1 = 1 | 1029.25 | 2.229
308.15 K, x1 = 0.1 | 834.83 | 1.65
308.15 K, x1 = 0.2001 | 867.03 | 1.515
308.15 K, x1 = 0.3 | 895.21 | 1.482
308.15 K, x1 = 0.3999 | 920.02 | 1.492
308.15 K, x1 = 0.5 | 942.04 | 1.52
308.15 K, x1 = 0.6001 | 961.72 | 1.564
308.15 K, x1 = 0.6998 | 979.42 | 1.635
308.15 K, x1 = 0.7999 | 995.63 | 1.741
308.15 K, x1 = 0.8997 | 1010.45 | 1.876
308.15 K, x1 = 1 | 1024.08 | 2.008
313.15 K, x1 = 0.1 | 830.64 | 1.49
313.15 K, x1 = 0.2001 | 862.62 | 1.379
313.15 K, x1 = 0.3 | 890.63 | 1.355
313.15 K, x1 = 0.3999 | 915.3 | 1.366
313.15 K, x1 = 0.5 | 937.2 | 1.394
313.15 K, x1 = 0.6001 | 956.78 | 1.437
313.15 K, x1 = 0.6998 | 974.41 | 1.502
313.15 K, x1 = 0.7999 | 990.55 | 1.596
313.15 K, x1 = 0.8997 | 1005.31 | 1.712
313.15 K, x1 = 1 | 1018.9 | 1.821
318.15 K, x1 = 0.1 | 826.42 | 1.337
318.15 K, x1 = 0.2001 | 858.18 | 1.245
318.15 K, x1 = 0.3 | 886.02 | 1.226
318.15 K, x1 = 0.3999 | 910.54 | 1.239
318.15 K, x1 = 0.5 | 932.33 | 1.266
318.15 K, x1 = 0.6001 | 951.83 | 1.307
318.15 K, x1 = 0.6998 | 969.38 | 1.367
318.15 K, x1 = 0.7999 | 985.47 | 1.451
318.15 K, x1 = 0.8997 | 1000.18 | 1.556
318.15 K, x1 = 1 | 1013.72 | 1.66
323.15 K, x1 = 0.1 | 822.17 | 1.218
323.15 K, x1 = 0.2001 | 853.72 | 1.142
323.15 K, x1 = 0.3 | 881.38 | 1.129
323.15 K, x1 = 0.3999 | 905.78 | 1.143
323.15 K, x1 = 0.5 | 927.46 | 1.169
323.15 K, x1 = 0.6001 | 946.87 | 1.208
323.15 K, x1 = 0.6998 | 964.35 | 1.264
323.15 K, x1 = 0.7999 | 980.38 | 1.342
323.15 K, x1 = 0.8997 | 995.05 | 1.435
323.15 K, x1 = 1 | 1008.55 | 1.523

CCOC(=O)CCC(=O)OCC [diethyl butanedioate] + CCCO
Details | mass density [kg/m3] | viscosity [mPa·s]
288.15 K, x1 = 0.1 | 854.4 | 2.13
288.15 K, x1 = 0.2 | 891.88 | 2.009
288.15 K, x1 = 0.2999 | 922.67 | 2.025
288.15 K, x1 = 0.3998 | 948.47 | 2.105
288.15 K, x1 = 0.4999 | 970.46 | 2.214
288.15 K, x1 = 0.6001 | 989.43 | 2.341
288.15 K, x1 = 0.7001 | 1005.92 | 2.496
288.15 K, x1 = 0.8002 | 1020.45 | 2.69
288.15 K, x1 = 0.8997 | 1033.27 | 2.926
288.15 K, x1 = 1 | 1044.83 | 3.195
293.15 K, x1 = 0.1 | 850.08 | 1.889
293.15 K, x1 = 0.2 | 887.33 | 1.788
293.15 K, x1 = 0.2999 | 917.95 | 1.804
293.15 K, x1 = 0.3998 | 943.61 | 1.875
293.15 K, x1 = 0.4999 | 965.5 | 1.971
293.15 K, x1 = 0.6001 | 984.4 | 2.082
293.15 K, x1 = 0.7001 | 1000.83 | 2.215
293.15 K, x1 = 0.8002 | 1015.31 | 2.379
293.15 K, x1 = 0.8997 | 1028.1 | 2.578
293.15 K, x1 = 1 | 1039.63 | 2.807
298.15 K, x1 = 0.1 | 845.75 | 1.69
298.15 K, x1 = 0.2 | 882.77 | 1.608
298.15 K, x1 = 0.2999 | 913.21 | 1.622
298.15 K, x1 = 0.3998 | 938.75 | 1.684
298.15 K, x1 = 0.4999 | 960.54 | 1.767
298.15 K, x1 = 0.6001 | 979.36 | 1.866
298.15 K, x1 = 0.7001 | 995.74 | 1.983
298.15 K, x1 = 0.8002 | 1010.18 | 2.126
298.15 K, x1 = 0.8997 | 1022.93 | 2.297
298.15 K, x1 = 1 | 1034.44 | 2.491
303.15 K, x1 = 0.1 | 841.4 | 1.519
303.15 K, x1 = 0.2 | 878.18 | 1.452
303.15 K, x1 = 0.2999 | 908.46 | 1.465
303.15 K, x1 = 0.3998 | 933.87 | 1.518
303.15 K, x1 = 0.4999 | 955.57 | 1.593
303.15 K, x1 = 0.6001 | 974.32 | 1.682
303.15 K, x1 = 0.7001 | 990.64 | 1.787
303.15 K, x1 = 0.8002 | 1005.04 | 1.912
303.15 K, x1 = 0.8997 | 1017.76 | 2.061
303.15 K, x1 = 1 | 1029.25 | 2.229
308.15 K, x1 = 0.1 | 837.02 | 1.371
308.15 K, x1 = 0.2 | 873.57 | 1.316
308.15 K, x1 = 0.2999 | 903.69 | 1.328
308.15 K, x1 = 0.3998 | 928.98 | 1.376
308.15 K, x1 = 0.4999 | 950.59 | 1.444
308.15 K, x1 = 0.6001 | 969.27 | 1.524
308.15 K, x1 = 0.7001 | 985.54 | 1.619
308.15 K, x1 = 0.8002 | 999.9 | 1.731
308.15 K, x1 = 0.8997 | 1012.6 | 1.861
308.15 K, x1 = 1 | 1024.08 | 2.008
313.15 K, x1 = 0.1 | 832.6 | 1.248
313.15 K, x1 = 0.2 | 868.94 | 1.209
313.15 K, x1 = 0.2999 | 898.89 | 1.222
313.15 K, x1 = 0.3998 | 924.07 | 1.265
313.15 K, x1 = 0.4999 | 945.59 | 1.325
313.15 K, x1 = 0.6001 | 964.21 | 1.398
313.15 K, x1 = 0.7001 | 980.44 | 1.484
313.15 K, x1 = 0.8002 | 994.77 | 1.586
313.15 K, x1 = 0.8997 | 1007.44 | 1.7
313.15 K, x1 = 1 | 1018.9 | 1.821
318.15 K, x1 = 0.1 | 828.14 | 1.128
318.15 K, x1 = 0.2 | 864.27 | 1.096
318.15 K, x1 = 0.2999 | 894.07 | 1.11
318.15 K, x1 = 0.3998 | 919.14 | 1.15
318.15 K, x1 = 0.4999 | 940.58 | 1.206
318.15 K, x1 = 0.6001 | 959.14 | 1.274
318.15 K, x1 = 0.7001 | 975.33 | 1.352
318.15 K, x1 = 0.8002 | 989.62 | 1.443
318.15 K, x1 = 0.8997 | 1002.28 | 1.545
318.15 K, x1 = 1 | 1013.72 | 1.66
323.15 K, x1 = 0.1 | 823.65 | 1.029
323.15 K, x1 = 0.2 | 859.57 | 1.006
323.15 K, x1 = 0.2999 | 889.22 | 1.025
323.15 K, x1 = 0.3998 | 914.18 | 1.065
323.15 K, x1 = 0.4999 | 935.55 | 1.118
323.15 K, x1 = 0.6001 | 954.05 | 1.18
323.15 K, x1 = 0.7001 | 970.21 | 1.251
323.15 K, x1 = 0.8002 | 984.48 | 1.334
323.15 K, x1 = 0.8997 | 997.12 | 1.425
323.15 K, x1 = 1 | 1008.55 | 1.523
